Laboratory results from ChEMBL document CHEMBL1201862, “PubChem BioAssay data set” (2004).
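Tested at 5 concentrations; 48 h exposure; 96-well plates; endpoints linearly interpolated, else capped at highest concentration. Here, GI50 denotes the concentration required for 50% inhibition of growth.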 Activity calls are given as the source filed them. Cut-off read from the data, not from the text of the source: active = GI50 up to about 1.1 µM and inactive = higher.

Legend:
Assay in all cases: NCI-60 cell line screen, 48 h
MOLT-4 = tested on: MOLT-4
LOX IMVI = tested on: LOX IMVI
HT-29 = tested on: HT-29
MDA-MB-435 = tested on: MDA-MB-435
Hs-578T = tested on: Hs-578T
NCI-H226 = tested on: NCI-H226
OVCAR-5 = tested on: OVCAR-5
CAKI-1 = tested on: CAKI-1
SK-OV-3 = tested on: SK-OV-3
U-251 = tested on: U-251
OVCAR-3 = tested on: OVCAR-3
SF-539 = tested on: SF-539
MCF7 = tested on: MCF7
DU-145 = tested on: DU-145
NCI-H460 = tested on: NCI-H460
BT-549 = tested on: BT-549
CCRF-CEM = tested on: CCRF-CEM
SK-MEL-5 = tested on: SK-MEL-5
SR = tested on: SR
Malme-3M = tested on: Malme-3M
SW-620 = tested on: SW-620
RXF 393 = tested on: RXF 393
SF-268 = tested on: SF-268
NCI-H23 = tested on: NCI-H23
OVCAR-8 = tested on: OVCAR-8
OVCAR-4 = tested on: OVCAR-4
M14 = tested on: M14
MDA-N = tested on: MDA-N
SK-MEL-2 = tested on: SK-MEL-2
PC-3 = tested on: PC-3
UO-31 = tested on: UO-31
SF-295 = tested on: SF-295
TK-10 = tested on: TK-10
UACC-62 = tested on: UACC-62
IGROV-1 = tested on: IGROV-1
KM12 = tested on: KM12
HOP-62 = tested on: HOP-62
SN12C = tested on: SN12C
RPMI-8226 = tested on: RPMI-8226
A549 = tested on: A549
MDA-MB-231 = tested on: MDA-MB-231
HOP-92 = tested on: HOP-92
HCT-116 = tested on: HCT-116
NCI/ADR-RES = tested on: NCI/ADR-RES
786-0 = tested on: 786-0
K562 = tested on: K562
HL-60 = tested on: HL-60
HCT-15 = tested on: HCT-15
ACHN = tested on: ACHN
T47D = tested on: T47D
COLO 205 = tested on: COLO 205
EKVX = tested on: EKVX
NCI-H522 = tested on: NCI-H522

In the case of `Cc1ccc(O)c(-c2cc(-c3cccc(Cl)c3)c(C#N)c(N)n2)c1`, the GI50 (MOLT-4) is reported as 12.8 µM (inactive), the GI50 (LOX IMVI) is reported as 16.7 µM (inactive) and the GI50 (HT-29) is reported as 25.8 µM (inactive). The GI50 (MDA-MB-435) was 13.9 µM (inactive), the GI50 (Hs-578T) was 22.7 µM (inactive) and the GI50 (NCI-H226) was 18.7 µM (inactive). For the same compound, the GI50 (OVCAR-5) was 24 µM (inactive), the GI50 (CAKI-1) was 29.4 µM (inactive) and the GI50 (SK-OV-3) was 21.4 µM (inactive). The GI50 (U-251) was 15.6 µM (inactive), the GI50 (OVCAR-3) was 38.5 µM (inactive) and the GI50 (SF-539) was 19.5 µM (inactive). For the same compound, the GI50 (MCF7) was 13.5 µM (inactive), the GI50 (DU-145) was 44.5 µM (inactive) and the GI50 (NCI-H460) was 19.6 µM (inactive). The GI50 (BT-549) was 36.3 µM (inactive), the GI50 (CCRF-CEM) was 24.4 µM (inactive) and the GI50 (SK-MEL-5) was 14.4 µM (inactive). For the same compound, the GI50 (SR) was 10.7 µM (inactive), the GI50 (Malme-3M) was 17.5 µM (inactive) and the GI50 (SW-620) was 17.2 µM (inactive). For the same compound, the GI50 (RXF 393) was 19.3 µM (inactive), the GI50 (SF-268) was 18.6 µM (inactive) and the GI50 (NCI-H23) was 25.1 µM (inactive). For the same compound, the GI50 (OVCAR-8) was 31 µM (inactive), the GI50 (OVCAR-4) was 15.9 µM (inactive) and the GI50 (M14) was 20.9 µM (inactive). For the same compound, the GI50 (MDA-N) was 14.5 µM (inactive), the GI50 (SK-MEL-2) was 13.2 µM (inactive) and the GI50 (PC-3) was 23.3 µM (inactive). For the same compound, the GI50 (UO-31) was 18 µM (inactive), the GI50 (SF-295) was 14.8 µM (inactive) and the GI50 (TK-10) was 18.1 µM (inactive). For the same compound, the GI50 (UACC-62) was 16.1 µM (inactive), the GI50 (IGROV-1) was 6.93 µM (inactive) and the GI50 (KM12) was 19.6 µM (inactive). For the same compound, the GI50 (HOP-62) was 20.6 µM (inactive), the GI50 (SN12C) was 20.9 µM (inactive) and the GI50 (RPMI-8226) was 19.6 µM (inactive). For the same compound, the GI50 (A549) was 18.9 µM (inactive), the GI50 (MDA-MB-231) was 20.7 µM (inactive) and the GI50 (HOP-92) was 13.1 µM (inactive). The GI50 (HCT-116) was 16.2 µM (inactive), the GI50 (NCI/ADR-RES) was 24.7 µM (inactive) and the GI50 (786-0) was 20.4 µM (inactive). The GI50 (K562) was 21.5 µM (inactive), the GI50 (HL-60) was 36.1 µM (inactive) and the GI50 (HCT-15) was 12.2 µM. For the same compound, the GI50 (ACHN) was 17.9 µM (inactive), the GI50 (T47D) was 29.9 µM (inactive) and the GI50 (COLO 205) was 15.7 µM (inactive). The GI50 (EKVX) was 14 µM (inactive) and the GI50 (NCI-H522) was 12.5 µM (inactive).
